Several values for one entry are separate records, joined by “and”; a condition that tells them apart may be missing. Equal values may be shown once. Inconclusive results and toxic doses are left out.
Test system: P388 leukemia ip, CD2F1 mice, survival T/C
Test: NCI In Vivo Anticancer Drug Screen. Data for tumor model P388 Leukemia (intraperitoneal) in CD2F1 (CDF1) mice
Details: endpoint: median survival time, higher = longer survival
In short: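 Mice carrying the transplanted tumor received test compound or vehicle. Survival was recorded in each group, and the value is the treated-group measurement divided by that of the vehicle-treated control group.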

[1] = dose: 60.0 mg/kg/injection, schedule: Q01DX005 (ip), vehicle: saline with Tween-80
[2] = dose: 120.0 mg/kg/injection, schedule: Q01DX005 (ip), vehicle: saline with Tween-80
[3] = dose: 240.0 mg/kg/injection, schedule: Q01DX005 (ip), vehicle: saline with Tween-80
[4] = dose: 50.0 mg/kg/injection, schedule: Q01DX009 (ip), vehicle: saline with Tween-80
[5] = dose: 100.0 mg/kg/injection, schedule: Q01DX009 (ip), vehicle: saline with Tween-80
[6] = dose: 200.0 mg/kg/injection, schedule: Q01DX009 (ip), vehicle: saline with Tween-80
[7] = dose: 50.0 mg/kg/injection, schedule: Q01DX005 (ip), vehicle: Klucel (hydroxypropylcellulose) (HPC)
[8] = dose: 100.0 mg/kg/injection, schedule: Q01DX005 (ip), vehicle: Klucel (hydroxypropylcellulose) (HPC)
[9] = dose: 200.0 mg/kg/injection, schedule: Q01DX005 (ip), vehicle: Klucel (hydroxypropylcellulose) (HPC)
[10] = dose: 100.0 mg/kg/injection, schedule: Q04DX003 (ip), vehicle: saline with Tween-80
[11] = dose: 200.0 mg/kg/injection, schedule: Q04DX003 (ip), vehicle: saline with Tween-80
[12] = dose: 400.0 mg/kg/injection, schedule: Q04DX003 (ip), vehicle: saline with Tween-80

Structure (SMILES): Nc1cc2c(cc1Br)-c1c(C(=O)O)cccc1C2O (stereo unspecified)
- T/C (dose: 50.0 mg/kg/injection, schedule: Q01DX005 (ip), vehicle: sodium bicarbonate): 113 % of control
- T/C [1]: 100 % of control and 101 % of control
- T/C (dose: 100.0 mg/kg/injection, schedule: Q01DX005 (ip), vehicle: sodium bicarbonate): 123 % of control
- T/C [2]: 104 % of control
- T/C [3]: 123 % of control
- T/C (dose: 480.0 mg/kg/injection, schedule: Q01DX005 (ip), vehicle: saline with Tween-80): 154 % of control

Structure (SMILES): NC(=S)N/N=C/c1cccnc1
- T/C (dose: 25.0 mg/kg/injection, schedule: Q01DX009 (ip), vehicle: saline with Tween-80): 92 % of control
- T/C [4]: 92 % of control
- T/C [5]: 99 % of control
- T/C [6]: 92 % of control

Structure (SMILES): CCOC(=O)C(C)ONC(=O)Nc1ccc(Cl)cc1 (stereo unspecified)
- T/C [4]: 105 % of control
- T/C [5]: 103 % of control
- T/C [6]: 95 % of control

Structure (SMILES): Cc1ccc(O)c(C2CC(=O)NC(N)=N2)c1 (stereo unspecified)
- T/C (dose: 50.0 mg/kg/injection, schedule: Q01DX009 (ip), vehicle: saline): 110 % of control
- T/C (dose: 100.0 mg/kg/injection, schedule: Q01DX009 (ip), vehicle: saline): 101 % of control
- T/C (dose: 200.0 mg/kg/injection, schedule: Q01DX009 (ip), vehicle: saline): 104 % of control

Structure (SMILES): CC(=O)Nc1nc(Cl)c2[nH]cnc2n1
- T/C (dose: 25.0 mg/kg/injection, schedule: Q01DX005 (ip), vehicle: Klucel (hydroxypropylcellulose) (HPC)): 98 % of control
- T/C [7]: 98 % of control
- T/C [8]: 102 % of control
- T/C [9]: 112 % of control

Structure (SMILES): COc1ccc(NC(=S)N(C)C)cc1
- T/C [10]: 95 % of control
- T/C [11]: 100 % of control
- T/C [12]: 95 % of control

Structure (SMILES): COc1ccc(/C=C/Cc2cc3c(cc2OC(C)=O)OCO3)cc1
- T/C [1]: 98 % of control
- T/C [2]: 101 % of control
- T/C [3]: 93 % of control

Structure (SMILES): CCS/C(N)=C(\C#N)C(SCC)(SCC)SCC
- T/C (dose: 50.0 mg/kg/injection, schedule: Q04DX003 (ip), vehicle: saline): 107 % of control
- T/C (dose: 100.0 mg/kg/injection, schedule: Q04DX003 (ip), vehicle: saline): 106 % of control

Structure (SMILES): CC(C)(C)C1CCN(Cc2ccccc2)CC1
- T/C (dose: 25.0 mg/kg/injection, schedule: Q01DX005 (ip), vehicle: saline with Tween-80): 103 % of control
- T/C (dose: 50.0 mg/kg/injection, schedule: Q01DX005 (ip), vehicle: saline with Tween-80): 103 % of control
- T/C (dose: 100.0 mg/kg/injection, schedule: Q01DX005 (ip), vehicle: saline with Tween-80): 100 % of control

Structure (SMILES): COc1ccc2c(c1)CCC1=C2CCC2(C)C1=CCS2(=O)=O (stereo unspecified)
- T/C (dose: 60.0 mg/kg/injection, schedule: Q01DX005 (ip), vehicle: Klucel (hydroxypropylcellulose) (HPC)): 105 % of control
- T/C (dose: 120.0 mg/kg/injection, schedule: Q01DX005 (ip), vehicle: Klucel (hydroxypropylcellulose) (HPC)): 90 % of control
- T/C (dose: 240.0 mg/kg/injection, schedule: Q01DX005 (ip), vehicle: Klucel (hydroxypropylcellulose) (HPC)): 97 % of control

Structure (SMILES): Cc1ccc(C)c(C2(c3cc(C)ccc3C)CCCCCC2=O)c1
- T/C [8]: 88 % of control

Structure (SMILES): O=C(Nc1cccc2ccccc12)OCC1CC1
- T/C (dose: 50.0 mg/kg/injection, schedule: Q04DX003 (ip), vehicle: saline with Tween-80): 98 % of control
- T/C [10]: 102 % of control
- T/C [11]: 100 % of control
- T/C [12]: 100 % of control

Structure (SMILES): COc1cc(C(=O)c2cc3c(cc2C=O)OCO3)cc(OC)c1OC
- T/C [7]: 95 % of control
- T/C [8]: 90 % of control
- T/C [9]: 99 % of control

Structure (SMILES): NCCCn1[nH]c(=O)c2cccnc2c1=O
- T/C [1]: 101 % of control
- T/C [2]: 100 % of control
- T/C [3]: 95 % of control

Structure (SMILES): CCOc1ccc(/C=C2\CCc3ccccc3C2=O)cc1
- T/C (dose: 50.0 mg/kg/injection, schedule: Q01DX009 (ip), vehicle: Klucel (hydroxypropylcellulose) (HPC)): 98 % of control
- T/C (dose: 100.0 mg/kg/injection, schedule: Q01DX009 (ip), vehicle: Klucel (hydroxypropylcellulose) (HPC)): 102 % of control
- T/C (dose: 200.0 mg/kg/injection, schedule: Q01DX009 (ip), vehicle: Klucel (hydroxypropylcellulose) (HPC)): 99 % of control

Structure (SMILES): CC(NCNc1ccc2ccccc2c1)C(=O)O (stereo unspecified)
- T/C [4]: 104 % of control
- T/C [5]: 106 % of control
- T/C [6]: 98 % of control

Structure (SMILES): C=C1C(=O)C23CC1CCC2C12COC(OC(=O)CCCCCCCCCCC)C1C(C)(C)C(O)CC2OC3=O (stereo unspecified)
- T/C (dose: 7.5 mg/kg/injection, schedule: Q01DX009 (ip), vehicle: saline with Tween-80): 103 % of control
- T/C (dose: 15.0 mg/kg/injection, schedule: Q01DX009 (ip), vehicle: saline with Tween-80): 95 % of control
- T/C (dose: 30.0 mg/kg/injection, schedule: Q01DX009 (ip), vehicle: saline with Tween-80): 103 % of control
- T/C (dose: 60.0 mg/kg/injection, schedule: Q01DX009 (ip), vehicle: saline with Tween-80): 103 % of control

Structure (SMILES): CC(=O)OCC#CCN1CCCCC1
- T/C (dose: 6.25 mg/kg/injection, schedule: Q01DX005 (ip), vehicle: saline): 102 % of control
- T/C (dose: 12.5 mg/kg/injection, schedule: Q01DX005 (ip), vehicle: saline): 104 % of control
- T/C (dose: 25.0 mg/kg/injection, schedule: Q01DX005 (ip), vehicle: saline): 101 % of control

Structure (SMILES): CCN(CC(O)CN(CC1CO1)c1ccccc1)c1ccccc1 (stereo unspecified)
- T/C (dose: 100.0 mg/kg/injection, schedule: Q04DX002 (ip), vehicle: saline with Tween-80): 100 % of control
- T/C (dose: 200.0 mg/kg/injection, schedule: Q04DX002 (ip), vehicle: saline with Tween-80): 94 % of control
- T/C (dose: 400.0 mg/kg/injection, schedule: Q04DX002 (ip), vehicle: saline with Tween-80): 101 % of control

Source: PubChem BioAssay AID330 (DTP/NCI, 2004)
